Earlier results, collected in patent publication US20090291958A1, “Substituted PDE5 inhibitors” (Auspex Pharmaceuticals, Inc., priority 2006, published 2009).

Columns and labels:
[1] = in vivo
PDE6 = settings: share of patients; attributed to PDE6 modulation
PDE5 versus PDE6 = settings: compared with sildenafil and vardenafil
[2] = in vivo; remark: listed apart in the source

CN1CC(=O)N2[C@H](c3ccc4c(c3)OCO4)c3[nH]c4ccccc4c3C[C@@H]2C1=O [tadalafil, Tadalafil]
half-life [1]: 17.5 h | patients with side effects of chromatopsia, increased sensitivity to light, and blurred vision (PDE6): less than 0.1% | selectivity for PDE5 versus PDE6 (PDE5 versus PDE6): much more selective than sildenafil and vardenafil | exercise tolerance [2]: improve exercise tolerance | rate of myocardial infarction [2]: lower rate of myocardial infarction than placebo
